Assay type in all cases: physicochemical
The nature of series [1]: Solubilization of SWCNTs by linear β-sheet block copolypeptide with sonication. To be noted: 5 μg SWCNTs, 0.3 mL peptide solution, pure water, sonication 15 min at room temperature. On the procedure:
First, it was confirmed whether this potential β-sheet forming peptide can bind to and then solubilize SWCNTs in pure water. The arc-produced SWCNTs were suspended in tetrahydrofuran (THF) and equal amounts of the SWCNTs (5 μg) were added into microcentrifuge tubes. After THF evaporation, the block copolypeptide solution (0.3 mL) was added and the mixture was subjected to sonication at room temperature for 15 min.
Next, the influence of ionic strength on the peptide/SWCNT hybrid formation was investigated. The β-sheet contents of the block copolypeptide solution increased with increasing NaCl concentration, and the increase reached a plateau at a salt concentration of around 50-60 mM (see FIG. 5).
In contrast, the granules became smaller when salt was added (50 mM) and the solution was subjected to a vortex (the right image in a) of FIG. 3). Upon soniciation of both mixtures, a significant difference was evident.
An investigation was made as to whether preassembled β-sheet nanoribbons could be disintegrated and used to solubilize CNTs in the presence of SWCNTs (path 4 or path 5 in FIG. 1).

Series [2] can be described thus: Circular dichroism of linear peptide and peptide/SWCNT hybrid. The following applies: CD, molar ellipticity at 215 nm, peptide without SWCNTs. On the procedure: CD spectra were measured using a Chirascan™ circular dichroism spectrometer equipped with a Peltier temperature controller (Applied Photophysics., Ltd.). The spectra were recorded from 250 nm to 190 nm using a 2 mm path-length cuvette. Scans were repeated five times and averaged. The molar ellipticity was calculated per amino acid residue. Before measurement, 5 μM solutions of peptides with and without SWCNTs were incubated for 12 h in 20 mM or 60 mM NaCl at room temperature.

The nature of series [3]: Circular dichroism of cyclic peptide with and without SWCNTs (α-helix stabilization). The following applies: 50 μM peptide without SWCNTs. On the procedure: CD spectra were measured using a Chirascan™ circular dichroism spectrometer equipped with a Peltier temperature controller (Applied Photophysics., Ltd.). The spectra were recorded from 260 nm to 200 nm using a 2 mm path-length cuvette. Scans were repeated five times and averaged. The molar ellipticity was calculated per amino acid residue. Before measurement, 50 μM solutions of peptides with and without SWCNTs were incubated for 24 h in 150 mM KF, and another 50 μM peptide solution without SWCNTs were incubated for 24 h in distilled water.
In order to verify the function of SWCNTs as protein mimics supporting the α-helical structures, CD spectra were measured on a 50 μM solution of peptide 2 of Synthesis Example 2 in pure water and a solution of peptide 2 in a 150 mM aqueous salt solution (spectra b (dotted line) and c (alternate long and two short dashes line) of FIG. 10, respectively). Peptide 2 at a concentration of 50 μM was added to a 150 mM aqueous salt solution containing 20 μg of SWCNTs, followed by sonication to form peptide/SWCNT hybrids, which were used for CD spectrum measurement (spectrum a (solid line) of FIG. 10).
For orientation: Circular dichroism is the unequal absorption of left and right circularly polarised light.

Ends that are not written are not given here. Ebes = not defined here

On to “GRKKRRQRRRPPQGSGGFKFEFKFEFKFE [block copolypeptide]”, for which the “peptide concentration at which most of the SWCNTs were suspended” value in series [1] is recorded as “around 12.5 μM”. The “NaCl concentration at which the increase of β-sheet content reached a plateau” value in series [2] lay in the range of 50 to 60 mM.

As for “cyclo [-WKWEWKWEWKWEW-Ebes-GTRQARRNRRRRWRR-Ebes-C-] (chain 2 GTRQARRNRRRRWRR-{Ebes-Cys}; reading uncertain; also: cyclic: chain 1-Ebes-chain 2-Ebes-Cys, closed head-to-tail, head-to-tail to a chain's N/C-terminus, printed as cyclo [-WKWEWKWEWKWEW-Ebes-GTRQARRNRRRRWRR-Ebes-C-]) [peptide 2]”, the “stabilization of α-helical structure” value in series [3] (150 mM aqueous salt solution) and in series [3] (pure water) was “failed to stabilize the α-helical structures” in each case.

For the origin of these results see patent US9364550B2, “Bioactive carbon nanotube composite functionalized with B-sheet polypeptide block copolymer, and preparation method thereof” (INDUSTRY-ACADEMIC COOPERATION FOUNDATION, YONSEI UNIVERSITY, priority 2011, dated 2016).
